Experimental data published in US10202381B2, “Histone demethylase inhibitors” (CELGENE QUANTICEL RESEARCH, INC., priority 2014, dated 2019).
pIC50: −log10 of the molar value.

Tests used:
JMJD2C = JMJD2C (Homo sapiens (Human), UniProt Q9H3R0); test: In vitro enzyme inhibition assay (JMJD2C TR-FRET); assay type: biochemical; conditions: 0.3 nM JMJD2C, 300 nM H3K9me3-biotin peptide, 2 μM alpha-ketoglutaric acid
Method: This assay determines the ability of a test compound to inhibit JMJD2C demethylase activity. Baculovirus expressed JMJD2C (GenBank Accession #BC143571, AA 2-372) was purchased from BPS Bioscience (Cat#50105).
The ability of test compounds to inhibit the activity of JMJD2C was determined in 384-well plate-format under the following reaction conditions: 0.3 nM JMJD2C, 300 nM H3K9me3-biotin labeled peptide (Anaspec cat #64360), 2 μM alpha-ketoglutaric acid in assay buffer of 50 mM HEPES, pH 7.3, 0.005% Brij35, 0.5 mM TCEP, 0.2 mg/ml BSA, 50 μM sodium L-ascorbate, and 2 μM ammonium iron(II) sulfate. Reaction product was determined quantitatively by TR-FRET after the addition of detection reagent Phycolink Streptavidin-allophycocyanin (Prozyme) and Europium-anti-di-methylated histone H3 lysine 9 (H3K9me2) antibody (PerkinElmer) in the presence of 5 mM EDTA in LANCE detection buffer (PerkinElmer) at a final concentration of 50 nM and 1 nM, respectively.
The assay reaction was initiated by the following: 2 μl of the mixture of 900 nM H3K9me3-biotin labeled peptide and 6 μM alpha-ketoglutaric acid with 2 μl of 11-point serial diluted inhibitor in 3% DMSO were added to each well of the plate, followed by the addition of 2 μl of 0.9 nM JMJD2C to initiate the reaction. The reaction mixture was incubated at room temperature for 30 min, and terminated by the addition of 6 μl of 5 mM EDTA in LANCE detection buffer containing 100 nM Phycolink Streptavidin-allophycocyanin and 2 nM Europium-anti-H3K9me2 antibody. Plates were read by EnVisionMultilabel Reader in TR-FRET mode (excitation at 320 nm, emission at 615 nm and 665 nm) after 1 hr incubation at room temperature. A ratio was calculated (665/615) for each well and fitted to determine inhibition constant (IC50).
The ability of the compounds disclosed herein to inhibit demethylase activity was quantified and the respective IC50 value was determined. Table 3 provides the IC50 values of various compounds disclosed herein.

[1] = system: KYSE-150 esophageal carcinoma cell line; test: In vitro cell-based assay: BrdU cell proliferation ELISA; design: species or system human; conditions: Homo sapiens; KYSE-150 cells, BrdU incorporation after 168 hr of compound incubation; read-out: Cellular IC50
Method: Cell lines tested include the JMJD2C gene amplified cell line KYSE-150. This is a quantitative ELISA assay measuring DNA incorporation of BrdU during S-phase as a direct readout of cellular proliferation.
Assay Principle: This is a colorimetric immunoassay for the quantification of cell proliferation. Cells treated for 168 hr with test compounds are assayed for their ability to go through S-phase as a measure of their proliferative potential.
Assay Method: The human KYSE-150 (SMAD4 mut, TP53 mut) esophageal carcinoma cell line was seeded at 2,000 cells/well on a 96-well tissue culture treated plate. After an overnight incubation, cells were treated with compound in an 11-point dilution series with final concentrations ranging from 100 μM to 2 nM. Cells were then incubated in the presence of compound for 168 hr. After compound incubation the cells were assayed using a BrdU Cell Proliferation ELISA (Roche). The cells were first incubated with BrdU labeling reagent for 2 hr. After 2 hr, the BrdU incorporated cells were fixed and denatured, probed with an anti-BrdU-Peroxidase antibody for 1.5 hr and washed. Finally, a tetramethylbenzidine peroxidase substrate was added to each well for 15 min. followed by a H2SO4 stop solution. The plate was read at 450 nm, and the raw optical density data was transferred into XLFit (IDBS) for IC50 calculation using the formula: fit=(D+((Vmax*(x^n))/((x^n)+(Km^n)))).
Table 4 provides the cellular IC50 values of various compounds disclosed herein.

Chain of JMJD2C (Q9H3R0 2-372): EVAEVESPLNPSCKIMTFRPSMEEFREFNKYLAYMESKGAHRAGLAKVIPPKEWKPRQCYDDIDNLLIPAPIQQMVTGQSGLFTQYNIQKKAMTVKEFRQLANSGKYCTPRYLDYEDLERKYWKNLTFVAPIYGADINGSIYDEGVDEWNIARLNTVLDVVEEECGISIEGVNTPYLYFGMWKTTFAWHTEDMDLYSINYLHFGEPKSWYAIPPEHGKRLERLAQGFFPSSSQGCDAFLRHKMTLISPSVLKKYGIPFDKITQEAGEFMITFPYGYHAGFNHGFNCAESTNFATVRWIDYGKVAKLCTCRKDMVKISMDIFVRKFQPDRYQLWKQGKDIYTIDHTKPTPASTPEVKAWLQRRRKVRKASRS

CN1CCN(c2cc(N(C)c3ccc(Oc4nc(O)c5ccncc5n4)cc3)ccc2OCC(F)(F)F)CC1 [Example 136, -(4-(methyl(3-(4-methylpiperazin-1-yl)-4-(2,2,2-trifluoroethoxy)phenyl)amino)phenoxy)pyrido[3,4-d]pyrimidin-4-ol]
pIC50 (JMJD2C): ≥ 7.00
pIC50 [1]: 5.00 to 6.00

CCc1ccc(N(C)c2ccc(Oc3nc(O)c4ccncc4n3)cc2)c(OC)c1 [Example 137, 2-(4-((4-ethyl-2-methoxyphenyl)(methyl)amino)phenoxy)pyrido[3,4-d]pyrimidin-4-ol]
pIC50 (JMJD2C): 6.00 to 7.00
pIC50 [1]: < 5.00

CCN1CCN(c2cccc(N(C)c3ccc(Oc4nc(O)c5ccncc5n4)cc3)c2)CC1 [Example 138, 2-(4-((3-(4-ethylpiperazin-1-yl)phenyl)(methyl)amino)phenoxy)pyrido[3,4-d]pyrimidin-4-ol]
pIC50 (JMJD2C): ≥ 7.00
pIC50 [1]: 5.00 to 6.00

CN1CCC(c2cccc(N(C)c3ccc(Oc4nc(O)c5ccncc5n4)cc3)c2)CC1 [Example 140, 2-(4-(methyl(3-(1-methylpiperidin-4-yl)phenyl)amino)phenoxy)pyrido[3,4-d]pyrimidin-4-ol]
pIC50 (JMJD2C): ≥ 7.00
pIC50 [1]: 6.00 to 7.00

CCN(c1ccc(Oc2nc(O)c3ccncc3n2)cc1)c1cccc(N2CCN(C)CC2)c1 [Example 141, 2-(4-(ethyl(3-(4-methylpiperazin-1-yl)phenyl)amino)phenoxy)pyrido[3,4-d]pyrimidin-4-ol]
pIC50 (JMJD2C): ≥ 7.00
pIC50 [1]: ≥ 7.00
